In PMC8148468, “Shikimic acid protects skin cells from UV-induced senescence through activation of the NAD+-dependent deacetylase SIRT1” (Aging (Albany NY), 2021):

Molecular target: T1, FLAG-SIRT1 purified from HEK293 cells (Homo sapiens, UniProt Q96EB6)
T1 construct: FLAG; made in house; host or cells: HEK293 (HEK293F)
T1 sequence (Q96EB6 1-747): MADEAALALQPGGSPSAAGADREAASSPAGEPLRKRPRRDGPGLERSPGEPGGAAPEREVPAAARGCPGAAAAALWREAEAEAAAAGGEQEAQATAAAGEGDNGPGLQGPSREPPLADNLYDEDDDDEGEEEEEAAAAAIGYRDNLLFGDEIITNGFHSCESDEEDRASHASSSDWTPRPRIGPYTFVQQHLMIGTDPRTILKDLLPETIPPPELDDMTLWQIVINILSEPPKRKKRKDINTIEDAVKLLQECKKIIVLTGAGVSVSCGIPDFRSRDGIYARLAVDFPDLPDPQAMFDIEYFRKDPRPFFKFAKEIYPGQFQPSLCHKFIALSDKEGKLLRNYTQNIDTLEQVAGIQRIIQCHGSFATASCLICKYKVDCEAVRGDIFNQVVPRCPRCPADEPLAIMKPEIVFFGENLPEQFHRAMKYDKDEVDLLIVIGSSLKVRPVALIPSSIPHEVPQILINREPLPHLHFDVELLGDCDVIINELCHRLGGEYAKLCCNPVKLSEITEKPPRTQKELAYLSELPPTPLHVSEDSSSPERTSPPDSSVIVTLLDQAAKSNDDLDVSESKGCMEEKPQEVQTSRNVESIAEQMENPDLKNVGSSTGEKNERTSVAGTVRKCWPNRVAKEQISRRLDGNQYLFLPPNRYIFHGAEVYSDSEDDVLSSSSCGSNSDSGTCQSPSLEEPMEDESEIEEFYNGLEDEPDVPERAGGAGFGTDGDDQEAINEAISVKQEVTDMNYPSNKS
Assay: In vitro SIRT1 deacetylation assay
Format: biochemical
Settings: -/+ NAD+, Shikimic acid 1 μM-10mM
Experimental: Figure 3 (A) Schematic representation of the protocol for senescence induction using UVB irradiation and study of EX527 involvement in the effect of Shikimic acid. Cells were treated with or without shikimic acid -/+ EX-527 from day 1 until day 7 after seeding, irradiated with UVB on days 2 and 5 and harvested for analysis on day 7. (B) Phase-contrast (left column) and bright field (right column) microscope images of β-Gal staining showing non-irradiated cells non-treated and treated with shikimic acid (10, 25 and 50 mM), UVB-irradiated cells non-treated and treated with shikimic acid (10, 25 and 50 mM), shikimic acid (10, 25 and 50 mM) + EX-527 1 μM and EX-527 1 μM. (C) Percentage of SA-β-Gal positive cells and (D) relative HAS2 mRNA levels in non-irradiated cells non-treated and treated with Shikimic acid (10, 25 and 50 mM), UVB-irradiated cells non-treated and treated with Shikimic acid (10, 25 and 50 mM), Shikimic acid (10, 25 and 50 mM) + EX-527 1 μM and EX-527 1 μM. (E) Percentage of SA-β-Gal as in (C) of SA 25 or 50mM upon siRNA mediated downregulation of SIRT1, SIRT2 or SIRT6. siScr: scramble siRNA. […] SIRT1 activity was then evaluated by analyzing acetylation of H3K9, H4K16 and p53K382 by Western blot. […]
The in vitro SIRT1 deacetylation assay was performed as previously described. […] Deacetylation was monitored by quantification of H3K9ac/H3, H4K16ac/H4 and p53K382ac/p53 levels.

O=C(O)C1=C[C@@H](O)[C@@H](O)[C@H](O)C1 [Shikimic acid]
SIRT1 deacetylation activity in vitro (H3K9ac, H4K16ac, p53K382ac): did not alter SIRT1 deacetylation activity in vitro
